How the values were obtained:
[1] = system: patients with impaired hepatic function; details: recommended dose of terfenadine, or antihistaminic amount of acid metabolite
[2] = to two primary metabolites; cited from earlier work
[3] = plasma concentrations of unchanged terfenadine and acid metabolite formation in subjects; assay type: in vivo
histamine H1-receptor = histamine H1-receptor (Homo sapiens, UniProt P35367); details: primary metabolites of terfenadine; cited from earlier work
[4] = cases of hepatic impairment, preliminary information

Sequence of histamine H1-receptor (P35367 whole entry, species assumed): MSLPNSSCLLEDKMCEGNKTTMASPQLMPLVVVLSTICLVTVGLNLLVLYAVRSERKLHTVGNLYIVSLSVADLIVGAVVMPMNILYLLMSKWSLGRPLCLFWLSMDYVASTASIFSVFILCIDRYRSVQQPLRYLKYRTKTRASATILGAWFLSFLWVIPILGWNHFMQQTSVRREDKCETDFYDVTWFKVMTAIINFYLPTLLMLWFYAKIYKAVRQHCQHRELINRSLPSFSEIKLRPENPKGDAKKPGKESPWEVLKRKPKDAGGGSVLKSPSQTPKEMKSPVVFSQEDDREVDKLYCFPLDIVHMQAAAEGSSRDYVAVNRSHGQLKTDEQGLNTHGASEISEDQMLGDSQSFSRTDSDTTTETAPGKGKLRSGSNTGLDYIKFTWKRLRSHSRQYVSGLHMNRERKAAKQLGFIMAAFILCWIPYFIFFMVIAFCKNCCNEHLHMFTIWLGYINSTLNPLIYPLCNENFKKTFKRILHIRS

CC(C)(C(=O)O)c1ccc(C(O)CCCN2CCC(C(O)(c3ccccc3)c3ccccc3)CC2)cc1 (stereo not drawn) [terfenadine acid metabolite, 4-[l-hydroxy-4-[4-(hydroxydiphenylmethyl)-1-piperidinyl]butyl]-α,α-dimethyl-benzeneacetic acid]
cardiac events of QT prolongation and/or ventricular tachycardia [1]: will not experience cardiac events of QT prolongation and/or ventricular tachycardia

CC(C)(C)c1ccc(C(O)CCCN2CCC(C(O)(c3ccccc3)c3ccccc3)CC2)cc1 (stereo not drawn) [Terfenadine, α-[4-(1,1-dimethylethyl)phenyl]-4-(hydroxydiphenylmethyl)-1-piperidinebutanol]
first pass metabolism [2]: 99% | rate of acid metabolite formation [3, 4]: decreased | unchanged terfenadine plasma concentrations [3, 4]: significant concentrations of unchanged terfenadine can be detected | unchanged terfenadine plasma concentrations ([3]; subjects with normal hepatic function): have not been detected

OC(c1ccccc1)(c1ccccc1)C1CCNCC1 [dealkylated metabolite]
activity of metabolite (antihistaminic) (histamine H1-receptor): inactive

— patent US6399632B1, “Method of providing an antihistaminic effect in a hepatically impaired patient” (Merrell Pharmaceuticals Inc., priority 1992, dated 2002)
